Data published in US20220362386A1, “LIQUID COMPOSITIONS COMPRISING A LEVODOPA AMINO ACID CONJUGATE AND USES THEREOF” (NeuroDerm, Ltd., priority 2019, published 2022).
Where a name gives a salt, the structure may show the parent alone. Read-outs that look alike come from different tables or passages of the source. Non-standard residues stand in square brackets, D forms with d. Residues, ends and D or L forms follow the SMILES beside them. Dopa = N[C@@H](Cc1ccc(O)c(O)c1)C(=O)O

How the values were obtained:
[1] = test system: P-gp; test: In-vitro absorption, Caco-2 A-B permeability; assay type: in vitro ADME, human; settings: human, Caco-2, pH 7.4, with verapamil 100 μM on both the A and B sides, Caco-2 A-B, in the presence of verapamil
Method: (§1) Conditions may be adjusted when necessary.
(§2) D denotes donor and R is receiver. […] V is the volume of the donor or receiver.
(§3) The test was performed with and without verapamil, which is a permeation inhibitor, and the results are presented in Tables 22 (without verapamil) and 34 (with verapamil).

[2] = In-vitro absorption, Caco-2 A-B permeability; assay type: in vitro ADME, human; settings: human, Caco-2, pH 7.4, Caco-2 A-B, without verapamil; for Papp A→B at 60 min, 10 μM: 1.0E−05M
Method: as §1, §2, §3

[3] = Protein binding, equilibrium dialysis method; assay type: in vitro ADME, human; settings: human, human plasma, pH 7.4, 1.0E-05M
Method: (§4) The protein binding values of various LDAA compounds in their TFA salt form (10^−5M) were tested in human plasma. The equilibrium dialysis technique was used to separate the fraction of the test compound that was unbound from the fraction of the test compound that bound to proteins during the test. The test was performed on 96-well plates in a dialysis block constructed from Teflon™.
(§5) The protein containing matrix used was human plasma, wherein the assay matrix was human serum albumin and alpha-1 acid glycoprotein. The protein matrix was spiked with each test compound at 10 μM (by default, n=2) with a final DMSO concentration of 1%. The dialysate compartment is loaded with phosphate buffered saline (PBS, pH 7.4), and the sample compartment was loaded with an equal volume of the spiked protein matrix. The dialysis plate was then sealed and incubated at 37° C. for 4 h.
(§6) Following the incubation, samples were taken from each compartment, diluted with PBS followed by the addition of acetonitrile, after which the samples were centrifuged. The supernatants were collected and analyzed by HPLC-MS/MS. The HPLC tests included a binary LC pump with an autosampler, a C18 column (2×20 mm), and gradient elution. The HPLC conditions were adjusted when necessary.
(§7) A control sample (n=2) was prepared from the spiked protein matrix in the same manner; however, no dialysis was performed on the control. It is noted that the control sample served as the bases for the recovery determination.
(§8) Acebutolol, quinidine, and warfarin were used in each assay as reference compounds, wherein it is known that those reference compounds provide low, medium and high human plasma protein binding values, respectively.
(§9) The % of the tested compound that is bound to proteins and the recovery values were calculated as follows:
(§10) Protein binding (%)=100×(Areap−Areab)/Areap
(§11) Recovery (%)=100×(Areap−Areab)/Areac
(§12) The determination of the recovery % serves as an indicator of reliability of the calculated protein binding value. […] This is most likely due to non-specific binding or degradation of the test compound. It is noted that a recovery of above 60% is considered to be reliable, while under 60% recovery, the results of the test are considered to be unreliable.

[4] = test system: human plasma; test: Protein binding, equilibrium dialysis method; assay type: in vitro ADME; settings: 1.0E-05M; 37° C., 4 h
Method: as §4, §5, §6, §7, §8, §9, §10, §11, §12

[5] = Comparative formulation tests, physical stability (Tables 32a-c, 33a-c); assay type: physicochemical; settings: LDAA TFA salt/CD formulation; for Physical stability (visual), Day 1: Day 1, room temperature; for Physical stability (visual), Day 2: Day 2, room temperature; for Physical stability (visual), Day 5: Day 5, room temperature after two days at 2-8° C.; for Physical stability (visual), Day 6: Day 6, room temperature after two days at 2-8° C.; for Physical stability (visual), Day 40: Day 40, returned to 2-8° C.
Method: It is noted that the formulations were similarly to those above; however, CD was added, and further, the amounts of the antioxidants, i.e., ascorbic acid and NAC, were added at three different concentrations, as detailed in Tables 32a-c below. Further, an additional amount of arginine was added to the solution in order to adjust the pH to a physiologically acceptable pH.
The formulations prepared as detailed in Tables 32a, 32b and 32c were (a) held at room temperature for two days; (b) transferred to a refrigerator (2-8° C.) for two days; and (c) transferred from the refrigerator to room temperature for an additional two days, during which they were assessed again for precipitants. The formulations were then returned to the refrigerator (2-8° C.) and assessed for precipitants on day 40. The physical stability of each formulation was assessed on the first two days and again on the last two days. The physical stability of the formulations was assessed visually. A clear solution was considered to be stable, while a solution comprising precipitants was considered to be physically unstable. The stability results of the formulations of Tables 32a, 32b and 32c are detailed in Tables 33a, 33b and 33c, respectively.

[6] = Human blood stability test; assay type: in vitro ADME; set-up: key: slope of % decrease of remaining compound over time; higher = faster metabolism; settings: slope of the percentage decrease of remaining compound; substrate 10 μM; 0-60 minutes
Method: The stability of several LDAA compounds in human blood was tested. The substrate concentration was 10 μM and the incubation time 0, 5, 15, 30 and 60 minutes.
The results are described in Table 19, wherein the results describe the Ke, i.e., the slope of the percentage decrease of the remaining amount of the compound, measured at each of the above time points, such that the higher the Ke the faster the metabolism.

[7] = read-out: Percent Recovery Mean
[8] = NB 144-15, ~0.1% Asc + ~0.1% NAC
[9] = NB 144-18, ~0.4% Asc + ~0.4% NAC
[10] = NB 144-20, ~0.8% Asc + ~0.8% NAC

recovery at 60 min, 10 μM ([1]; read-out: Percent Recovery 1st) | recovery at 60 min, 10 μM ([1]; read-out: Percent Recovery 2nd) | recovery at 60 min, 10 μM [1, 7] | Papp A→B at 60 min, 10 μM ([2]; read-out: Permeability 1st) | Papp A→B at 60 min, 10 μM ([2]; read-out: Permeability 2nd) | recovery at 60 min, 10 μM ([2]; read-out: Percent Recovery 1st) | recovery at 60 min, 10 μM ([2]; read-out: Percent Recovery 2nd) | recovery at 60 min, 10 μM [2, 7] | recovery at 4 h, 10 μM ([3]; read-out: % Recovery 1st) | recovery at 4 h, 10 μM ([3]; read-out: % Recovery 2nd) | recovery at 4 h, 10 μM ([3]; read-out: % Recovery Mean) | % Protein Bound 1st [4] | % Protein Bound 2nd [4] | % Protein Bound Mean [4] | Physical stability (visual), Day 1 [5, 8] | Physical stability (visual), Day 2 [5, 8] | Physical stability (visual), Day 5 [5, 8] | Physical stability (visual), Day 6 [5, 8] | Physical stability (visual), Day 40 [5, 8] | Papp A→B at 60 min, 10 μM ([2]; read-out: Permeability Mean) | Compound | also measured
50% | 45% | 47% | 0.04 ×10⁻⁶ cm/s | 0.03 ×10⁻⁶ cm/s | 52% | 51% | 51% | 68% | 74% | 71% | 54.8% | 66% | 60% | Stable | Stable | Stable | Stable | Stable |  | N[C@@H](Cc1ccc(O)c(O)c1)C(=O)N[C@@H](Cc1c[nH]c2ccccc12)C(=O)O [LD-Trp TFA salt, Levodopa Tryptophan] (H-[Dopa]-Trp-OH) | Physical stability (visual), Day 1 [5, 9]: Stable; Physical stability (visual), Day 2 [5, 9]: Stable; Physical stability (visual), Day 5 [5, 9]: Stable; Physical stability (visual), Day 6 [5, 9]: Stable; Physical stability (visual), Day 40 [5, 9]: Stable; Physical stability (visual), Day 1 [5, 10]: Stable; Physical stability (visual), Day 2 [5, 10]: Stable; Physical stability (visual), Day 5 [5, 10]: Stable; Physical stability (visual), Day 6 [5, 10]: Stable; Physical stability (visual), Day 40 [5, 10]: Stable
89% | 87% | 88% | 20.2 ×10⁻⁶ cm/s | 17.8 ×10⁻⁶ cm/s | 86% | 91% | 89% |  |  |  |  |  |  |  |  |  |  |  | 19 ×10⁻⁶ cm/s | N[C@@H](CSC[C@H](NC(=O)[C@@H](N)Cc1ccc(O)c(O)c1)C(=O)O)C(=O)O (single isomer, unassigned; peak 2) [LD-LA2 TFA salt, Levodopa Lanthionine Peak 2 TFA Salt] | Ke [6]: 0.0128
63% | 41% | 52% | 1.15 ×10⁻⁶ cm/s | 1.25 ×10⁻⁶ cm/s | 37% | 22% | 29% |  |  |  |  |  |  |  |  |  |  |  | 1.2 ×10⁻⁶ cm/s | N[C@@H](Cc1ccc(O)c(O)c1)C(=O)O [LD (control), L-3,4-dihydroxyphenylalanine, reference compound] | 
58% | 67% | 62% | 0.2 ×10⁻⁶ cm/s | 0.21 ×10⁻⁶ cm/s | 82% | 77% | 79% | 75% | 71% | 73% | 24.4% | 27.8% | 26% | Stable | Stable | Stable | Stable | Stable | 0.2 ×10⁻⁶ cm/s | N[C@@H](CSC[C@@H](NC(=O)[C@@H](N)Cc1ccc(O)c(O)c1)C(=O)O)C(=O)O (single isomer, unassigned; peak 1) [LD-LA1 TFA salt, Levodopa Lanthionine Peak 1 TFA Salt] | Ke [6]: −0.011; Physical stability (visual), Day 1 [5, 9]: Precipitated; Physical stability (visual), Day 2 [5, 9]: Precipitated; Physical stability (visual), Day 5 [5, 9]: Precipitated; Physical stability (visual), Day 6 [5, 9]: Precipitated; Physical stability (visual), Day 40 [5, 9]: Precipitated; Physical stability (visual), Day 1 [5, 10]: Stable; Physical stability (visual), Day 2 [5, 10]: Stable; Physical stability (visual), Day 5 [5, 10]: Stable; Physical stability (visual), Day 6 [5, 10]: Stable; Physical stability (visual), Day 40 [5, 10]: Stable
74% | 69% | 71% | 1.83 ×10⁻⁶ cm/s | 1.47 ×10⁻⁶ cm/s | 68% | 70% | 69% | 77% | 78% | 78% | 99.7% | 99.8% | 99% |  |  |  |  |  | 1.7 ×10⁻⁶ cm/s | NC(=O)CC[C@H](NC(=O)[C@@H](N)Cc1ccc(O)c(O)c1)C(=O)O [LD-Gln TFA salt, Levodopa Glutamine TFA Salt] (H-[Dopa]-Gln-OH) | 
